US20080009418A1, “Selective Inhibitors” (Alchemia LTD., priority 2004, published 2008)

How the values were obtained:
Human δ-opioid (DOP) = molecular target: T1, Human δ-opioid (DOP) (Homo sapiens, UniProt P41143); assay: Radioligand binding, human δ-opioid (DOP) membranes, FlashPlate, [3H]-Bremazocine; settings: compound at 10 μM, [3H]-Bremazocine
T1 construct: purchased Perkin Elmer Biosignal
In short: (§1)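 Cloned human receptor membranes were coated onto FlashPlate wells and incubated with radioligand and compound (added from a 0.5 mM DMSO daughter plate) for 1 hour at room temperature in the dark. Scintillation counting gave percent inhibition, with DMSO defining total and reference ligand defining non-specific binding.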

Human Melanocortin (MC3) = molecular target: T2, Human Melanocortin (MC3) (Homo sapiens, UniProt P41968); assay: Radioligand binding, human melanocortin MC3 membranes, FlashPlate, [125I]-NDP-αMSH; settings: compound at 10 μM, [125I]-NDP-αMSH
T2 construct: purchased Perkin Elmer Biosignal
T2 sequence (P41968 whole entry): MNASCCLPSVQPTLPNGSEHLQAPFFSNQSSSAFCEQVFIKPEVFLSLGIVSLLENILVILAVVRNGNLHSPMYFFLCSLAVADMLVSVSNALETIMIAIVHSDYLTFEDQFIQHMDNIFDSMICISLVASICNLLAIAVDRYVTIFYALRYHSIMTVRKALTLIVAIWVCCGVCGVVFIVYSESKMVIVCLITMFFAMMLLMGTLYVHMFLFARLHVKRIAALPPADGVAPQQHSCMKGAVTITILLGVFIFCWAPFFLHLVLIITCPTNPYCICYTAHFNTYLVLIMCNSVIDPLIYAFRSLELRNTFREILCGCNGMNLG
In short: as §1

Human melanocortin (MC5) = molecular target: T3, Human melanocortin (MC5) (Homo sapiens, UniProt P33032); assay: Radioligand binding, human melanocortin MC5 membranes, FlashPlate, [125I]-NDP-αMSH; settings: compound at 10 μM, [125I]-NDP-αMSH
T3 construct: purchased Perkin Elmer Biosignal
T3 sequence (P33032 whole entry): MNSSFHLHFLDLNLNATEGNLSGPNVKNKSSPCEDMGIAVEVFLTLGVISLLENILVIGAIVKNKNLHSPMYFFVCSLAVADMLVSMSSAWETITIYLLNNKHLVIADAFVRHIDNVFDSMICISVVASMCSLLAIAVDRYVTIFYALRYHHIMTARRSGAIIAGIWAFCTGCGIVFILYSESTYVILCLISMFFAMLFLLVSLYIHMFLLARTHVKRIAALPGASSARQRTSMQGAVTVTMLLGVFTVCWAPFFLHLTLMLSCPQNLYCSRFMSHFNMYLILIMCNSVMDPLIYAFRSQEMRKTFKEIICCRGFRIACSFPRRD
In short: as §1

Human μ-opioid (MOP) = molecular target: T4, Human μ-opioid (MOP) (Homo sapiens, UniProt P35372); assay: Radioligand binding, human μ-opioid (MOP) membranes, FlashPlate, [3H]-Naloxone; settings: compound at 10 μM, [3H]-Naloxone
T4 construct: purchased Perkin Elmer Biosignal
T4 sequence (P35372 whole entry): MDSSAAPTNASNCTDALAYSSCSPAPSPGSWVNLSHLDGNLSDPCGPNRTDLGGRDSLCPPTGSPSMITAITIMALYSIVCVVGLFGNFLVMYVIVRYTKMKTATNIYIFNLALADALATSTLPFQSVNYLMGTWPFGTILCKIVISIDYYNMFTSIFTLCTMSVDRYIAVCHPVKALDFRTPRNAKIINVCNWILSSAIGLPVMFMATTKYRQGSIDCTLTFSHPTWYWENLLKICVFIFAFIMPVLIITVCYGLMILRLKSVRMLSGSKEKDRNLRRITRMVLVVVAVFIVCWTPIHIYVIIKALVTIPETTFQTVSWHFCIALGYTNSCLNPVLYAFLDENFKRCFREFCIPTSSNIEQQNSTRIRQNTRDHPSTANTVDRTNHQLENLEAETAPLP
In short: as §1

Mouse urotensin (mUR2) = molecular target: T5, Mouse urotensin (mUR2) (Mus musculus, UniProt Q8VIH9); assay: Radioligand binding, mouse urotensin mUR2 membranes, FlashPlate, [125I]-Urotensin II; settings: compound at 10 μM, [125I]-Urotensin II
T5 construct: purchased Perkin Elmer Biosignal
T5 sequence (Q8VIH9 1-385): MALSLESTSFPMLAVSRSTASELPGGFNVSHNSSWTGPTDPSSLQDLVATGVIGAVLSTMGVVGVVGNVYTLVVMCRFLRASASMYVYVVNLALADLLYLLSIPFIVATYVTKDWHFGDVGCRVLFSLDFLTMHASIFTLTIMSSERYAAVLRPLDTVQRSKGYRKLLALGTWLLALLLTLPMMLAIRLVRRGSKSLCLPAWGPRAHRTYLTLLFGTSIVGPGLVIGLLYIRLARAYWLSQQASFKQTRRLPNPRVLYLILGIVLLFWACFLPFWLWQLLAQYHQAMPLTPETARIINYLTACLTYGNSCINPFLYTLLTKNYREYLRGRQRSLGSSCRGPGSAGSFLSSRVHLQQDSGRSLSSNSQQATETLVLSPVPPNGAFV
In short: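 Cloned mouse urotensin (mUR2) receptor membranes from Perkin Elmer Biosignal were immobilized in FlashPlate microplates using a proprietary coating. Each well got 19.5 μl buffer, then 0.5 μl of DMSO, reference ligand, or compound. Adding 5 μl of [125I]-Urotensin II, diluted to 5× final concentration in binding buffer, started binding. Plates were sealed with TopSeal-A and incubated 1 hour at room temperature in the dark. Wells were counted for 30 seconds each on a TopCount after a 60-second delay, and percentage inhibition was calculated.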

[1] = molecular target: T6, Human neuropeptide Y (NPY-Y1) (Homo sapiens, UniProt P25929); assay: Radioligand binding, human neuropeptide Y NPY-Y1 membranes, FlashPlate, [125I]-PYY; settings: compound at 10 μM, [125I]-PYY
T6 construct: purchased Perkin Elmer Biosignal
T6 sequence (P25929 1-384): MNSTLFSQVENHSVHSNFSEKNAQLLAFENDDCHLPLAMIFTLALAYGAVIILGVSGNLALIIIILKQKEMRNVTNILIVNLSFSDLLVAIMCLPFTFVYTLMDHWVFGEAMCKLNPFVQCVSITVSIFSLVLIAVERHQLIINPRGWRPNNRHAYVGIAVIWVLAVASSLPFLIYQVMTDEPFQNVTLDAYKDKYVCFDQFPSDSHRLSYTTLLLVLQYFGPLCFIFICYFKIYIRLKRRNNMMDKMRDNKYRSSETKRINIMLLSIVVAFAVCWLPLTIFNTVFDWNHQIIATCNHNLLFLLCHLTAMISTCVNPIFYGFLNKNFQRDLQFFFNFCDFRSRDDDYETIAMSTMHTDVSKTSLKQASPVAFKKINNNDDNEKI
In short: as §1

Human opioid (ORL1) = molecular target: T7, Human opioid (ORL1) (Homo sapiens, UniProt P41146); assay: Radioligand binding, human opioid ORL1 membranes, FlashPlate, [125I]-Nociceptin; settings: compound at 10 μM, [125I]-Nociceptin
T7 construct: purchased Perkin Elmer Biosignal
T7 sequence (P41146 whole entry): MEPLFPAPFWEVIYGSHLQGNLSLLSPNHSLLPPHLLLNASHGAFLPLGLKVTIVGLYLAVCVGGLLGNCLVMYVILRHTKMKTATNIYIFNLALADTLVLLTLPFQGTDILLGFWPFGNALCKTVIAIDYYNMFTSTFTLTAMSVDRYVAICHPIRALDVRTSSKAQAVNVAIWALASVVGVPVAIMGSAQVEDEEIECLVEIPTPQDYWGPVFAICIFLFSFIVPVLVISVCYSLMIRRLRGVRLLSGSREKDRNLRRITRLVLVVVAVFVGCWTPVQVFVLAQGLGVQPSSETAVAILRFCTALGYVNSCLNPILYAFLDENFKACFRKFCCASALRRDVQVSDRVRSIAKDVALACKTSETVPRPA
In short: as §1

Human Melanocortin (MC4) = molecular target: T8, Human Melanocortin (MC4) (Homo sapiens, UniProt P32245); assay: Radioligand binding, human melanocortin MC4 membranes, FlashPlate, [125I]-NDP-αMSH; settings: compound at 10 μM, [125I]-NDP-αMSH
T8 construct: purchased Perkin Elmer Biosignal
T8 sequence (P32245 whole entry): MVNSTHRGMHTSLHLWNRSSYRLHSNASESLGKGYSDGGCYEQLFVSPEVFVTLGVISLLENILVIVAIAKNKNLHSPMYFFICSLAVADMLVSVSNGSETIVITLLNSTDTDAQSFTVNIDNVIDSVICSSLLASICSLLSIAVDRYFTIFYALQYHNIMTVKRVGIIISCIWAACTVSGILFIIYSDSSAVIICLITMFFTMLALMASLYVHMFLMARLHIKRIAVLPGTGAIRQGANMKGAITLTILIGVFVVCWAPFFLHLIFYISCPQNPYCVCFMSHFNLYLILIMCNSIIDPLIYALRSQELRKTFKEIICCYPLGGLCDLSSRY
In short: as §1

[2] = molecular target: T9, Human melanin-concentrating hormone (MCH1) (Homo sapiens, UniProt Q99705); assay: Radioligand binding, human melanin-concentrating hormone MCH1 membranes, FlashPlate, [125I]-S36057; settings: compound at 10 μM
T9 construct: purchased Perkin Elmer Biosignal
T9 sequence (Q99705 whole entry): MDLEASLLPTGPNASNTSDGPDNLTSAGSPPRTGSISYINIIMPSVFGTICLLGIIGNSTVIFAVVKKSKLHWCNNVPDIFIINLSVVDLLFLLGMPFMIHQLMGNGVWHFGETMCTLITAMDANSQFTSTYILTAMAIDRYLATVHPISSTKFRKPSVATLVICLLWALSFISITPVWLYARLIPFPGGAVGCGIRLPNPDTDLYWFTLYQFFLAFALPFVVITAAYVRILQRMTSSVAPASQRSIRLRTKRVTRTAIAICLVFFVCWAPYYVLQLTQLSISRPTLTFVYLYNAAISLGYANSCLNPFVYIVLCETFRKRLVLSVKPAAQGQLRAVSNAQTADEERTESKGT
In short: as §1

Human κ-Opioid (KOP) = molecular target: T10, Human κ-Opioid (KOP) (Homo sapiens, UniProt P41145); assay: Radioligand binding, human κ-opioid (KOP) membranes, filtration, [3H]-Diprenorphine; settings: compound at 10 μM, [3H]-Diprenorphine
T10 construct: purchased Perkin Elmer Biosignal
T10 sequence (P41145 whole entry): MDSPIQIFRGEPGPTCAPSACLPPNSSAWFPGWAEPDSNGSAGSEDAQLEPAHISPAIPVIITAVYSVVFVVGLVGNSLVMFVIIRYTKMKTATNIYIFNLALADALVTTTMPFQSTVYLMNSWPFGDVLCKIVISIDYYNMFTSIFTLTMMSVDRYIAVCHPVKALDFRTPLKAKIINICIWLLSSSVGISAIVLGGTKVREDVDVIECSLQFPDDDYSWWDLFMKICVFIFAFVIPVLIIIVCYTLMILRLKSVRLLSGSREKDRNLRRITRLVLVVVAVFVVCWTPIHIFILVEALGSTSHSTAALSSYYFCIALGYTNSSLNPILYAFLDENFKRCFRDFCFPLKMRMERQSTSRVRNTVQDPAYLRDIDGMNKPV
In short: (§2)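 Percent inhibition of radioligand binding measured on recombinant human membranes: NK1 with [125I]-Substance P, KOP with [3H]-Diprenorphine. Incubation 1 h at room temperature, then harvest onto 0.3% PEI-soaked filters, cold Tris-HCl pH 7.4 washes and scintillation counting; non-specific binding from reference ligand wells.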

Human neurokinin (NK1) = molecular target: T11, Human neurokinin (NK1) (Homo sapiens, UniProt P25103); assay: Radioligand binding, human neurokinin NK1 membranes, filtration, [125I]-Substance P; settings: compound at 10 μM, [125I]-Substance P
T11 construct: purchased Perkin Elmer Biosignal
T11 sequence (P25103 whole entry): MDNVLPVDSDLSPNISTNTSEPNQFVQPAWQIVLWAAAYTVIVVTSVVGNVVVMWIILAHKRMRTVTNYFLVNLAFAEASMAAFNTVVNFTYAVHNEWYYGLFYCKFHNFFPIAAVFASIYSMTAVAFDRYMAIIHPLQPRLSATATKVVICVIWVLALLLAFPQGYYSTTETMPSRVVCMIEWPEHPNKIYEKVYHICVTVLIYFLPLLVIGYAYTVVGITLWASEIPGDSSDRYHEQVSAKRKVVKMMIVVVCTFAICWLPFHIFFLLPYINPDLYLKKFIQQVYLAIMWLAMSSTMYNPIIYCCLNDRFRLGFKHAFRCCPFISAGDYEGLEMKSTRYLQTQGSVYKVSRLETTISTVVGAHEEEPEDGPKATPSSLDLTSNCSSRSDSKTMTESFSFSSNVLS
In short: as §2

T1 sequence (P41143 whole entry): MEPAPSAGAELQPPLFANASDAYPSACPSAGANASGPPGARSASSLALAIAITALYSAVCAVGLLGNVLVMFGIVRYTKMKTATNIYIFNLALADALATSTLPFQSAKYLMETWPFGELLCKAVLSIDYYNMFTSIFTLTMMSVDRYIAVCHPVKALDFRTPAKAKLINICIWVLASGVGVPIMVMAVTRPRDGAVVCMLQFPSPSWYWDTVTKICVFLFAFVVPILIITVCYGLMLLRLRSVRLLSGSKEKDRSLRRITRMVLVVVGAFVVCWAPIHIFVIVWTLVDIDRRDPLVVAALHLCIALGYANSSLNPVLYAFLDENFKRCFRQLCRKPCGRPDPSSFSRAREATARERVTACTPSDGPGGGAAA

Structure (SMILES) | A1: inhibition of radioligand binding, human δ-opioid (DOP) (Human δ-opioid (DOP)) | A3: inhibition of radioligand binding, human melanocortin (MC3) (Human Melanocortin (MC3)) | A5: inhibition of radioligand binding, human melanocortin (MC5) (Human melanocortin (MC5)) | A7: inhibition of radioligand binding, human μ-opioid (MOP) (Human μ-opioid (MOP)) | A11: inhibition of radioligand binding, mouse urotensin (mUR2) (Mouse urotensin (mUR2)) | A9: inhibition of radioligand binding, human neuropeptide Y (NPY-Y1) [1] | A10: inhibition of radioligand binding, human opioid (ORL1) (Human opioid (ORL1)) | A4: inhibition of radioligand binding, human melanocortin (MC4) (Human Melanocortin (MC4)) | A6: inhibition of radioligand binding, human melanin-concentrating hormone (MCH1) ([2]; [125I]-S36057) | A2: inhibition of radioligand binding, human κ-opioid (KOP) (Human κ-Opioid (KOP)) | A8: inhibition of radioligand binding, human neurokinin (NK1) (Human neurokinin (NK1)) | also measured
NCCCC(=O)NC1C(OCc2ccc3ccccc3c2)OC(COCc2ccccc2)C(O)C1OCc1ccccc1 (single isomer, unassigned) [compound 468] | – | – | – | – | – | – | – | – | – | – | – | A1: inhibition of radioligand binding (Human δ-opioid (DOP); human DOP membranes): − (“−” indicates less than 50% inhibition at 10 μM); A3: inhibition of radioligand binding (Human Melanocortin (MC3); human MC3 membranes): − (“−” indicates less than 50% inhibition at 10 μM); A5: inhibition of radioligand binding (Human melanocortin (MC5); human MC5 membranes): − (“−” indicates less than 50% inhibition at 10 μM); A7: inhibition of radioligand binding (Human μ-opioid (MOP); human MOP membranes, 10 µM): + (“+” indicates greater than 50% inhibition at 10 μM); A11: inhibition of radioligand binding (Mouse urotensin (mUR2); mouse mUR2 membranes): − (“−” indicates less than 50% inhibition at 10 μM); A9: inhibition of radioligand binding ([1]; human NPY-Y1 membranes): − (“−” indicates less than 50% inhibition at 10 μM); A10: inhibition of radioligand binding (Human opioid (ORL1); human ORL1 membranes, 10 µM): + (“+” indicates greater than 50% inhibition at 10 μM); A4: inhibition of radioligand binding (Human Melanocortin (MC4); human MC4 membranes, 10 µM): − (“−” indicates less than 50% inhibition at 10 μM); A6: inhibition of radioligand binding ([2]; [125I]-S36057, human MCH1 membranes): − (“−” indicates less than 50% inhibition at 10 μM); A2: inhibition of radioligand binding (Human κ-Opioid (KOP); human KOP membranes): − (“−” indicates less than 50% inhibition at 10 μM); A8: inhibition of radioligand binding (Human neurokinin (NK1); human NK1 membranes): + (“+” indicates greater than 50% inhibition at 10 μM)
N=C(N)NCCC(=O)N[C@H]1C(OCc2ccc(Cl)cc2)O[C@H](COCc2ccc3ccccc3c2)[C@@H](O)[C@@H]1OCc1ccc(-c2ccccc2)cc1 (stereo partly shown) [compound 533] | − (“−” indicates less than 50% inhibition at 10 μM) | + (“+” indicates greater than 50% inhibition at 10 μM) | + (“+” indicates greater than 50% inhibition at 10 μM) | − (“−” indicates less than 50% inhibition at 10 μM) | − (“−” indicates less than 50% inhibition at 10 μM) | − (“−” indicates less than 50% inhibition at 10 μM) | − (“−” indicates less than 50% inhibition at 10 μM) | + (“+” indicates greater than 50% inhibition at 10 μM) | + (“+” indicates greater than 50% inhibition at 10 μM) | − (“−” indicates less than 50% inhibition at 10 μM) | + (“+” indicates greater than 50% inhibition at 10 μM) | –
CO[C@H]1[C@H](O)[C@@H](COCc2ccc3ccccc3c2)OC(OCc2ccc(Cl)cc2)[C@@H]1NC(=O)C1CCCN1 (stereo partly shown) [compound 352] | − (“−” indicates less than 50% inhibition at 10 μM) | − (“−” indicates less than 50% inhibition at 10 μM) | − (“−” indicates less than 50% inhibition at 10 μM) | − (“−” indicates less than 50% inhibition at 10 μM) | − (“−” indicates less than 50% inhibition at 10 μM) | − (“−” indicates less than 50% inhibition at 10 μM) | − (“−” indicates less than 50% inhibition at 10 μM) | − (“−” indicates less than 50% inhibition at 10 μM) | − (“−” indicates less than 50% inhibition at 10 μM) | − (“−” indicates less than 50% inhibition at 10 μM) | + (“+” indicates greater than 50% inhibition at 10 μM) | –
CO[C@H]1[C@H](O)[C@@H](COCc2ccc(Cl)cc2)OC(OCCc2ccccc2)[C@@H]1NC(=O)CNC(=N)N (stereo partly shown) [compound 119] | – | – | – | – | – | – | – | – | – | – | – | A1 radioligand binding, percentage inhibition (Human δ-opioid (DOP)): − (“−” indicates less than 50% inhibition at 10 μM); A3 radioligand binding, percentage inhibition (Human Melanocortin (MC3)): − (“−” indicates less than 50% inhibition at 10 μM); A5 radioligand binding, percentage inhibition (Human melanocortin (MC5)): − (“−” indicates less than 50% inhibition at 10 μM); A7 radioligand binding, percentage inhibition (Human μ-opioid (MOP)): − (“−” indicates less than 50% inhibition at 10 μM); A11 radioligand binding, percentage inhibition (Mouse urotensin (mUR2)): − (“−” indicates less than 50% inhibition at 10 μM); A9 radioligand binding, percentage inhibition [1]: − (“−” indicates less than 50% inhibition at 10 μM); A10 radioligand binding, percentage inhibition (Human opioid (ORL1)): − (“−” indicates less than 50% inhibition at 10 μM); A4 radioligand binding, percentage inhibition (Human Melanocortin (MC4)): − (“−” indicates less than 50% inhibition at 10 μM); A6 radioligand binding, percentage inhibition ([2]; [125I]-S36057): − (“−” indicates less than 50% inhibition at 10 μM); A2 radioligand binding, percentage inhibition (Human κ-Opioid (KOP)): − (“−” indicates less than 50% inhibition at 10 μM); A8 radioligand binding, percentage inhibition (Human neurokinin (NK1)): + (“+” indicates greater than 50% inhibition at 10 μM)
NCC1CCC(C(=O)NC2O[C@H](CO)[C@@H](O)[C@H](OCc3cccc4ccccc34)[C@H]2NC(=O)c2ccccc2)CC1 (stereo partly shown) [compound 362] | − (“−” indicates less than 50% inhibition at 10 μM) | − (“−” indicates less than 50% inhibition at 10 μM) | − (“−” indicates less than 50% inhibition at 10 μM) | − (“−” indicates less than 50% inhibition at 10 μM) | − (“−” indicates less than 50% inhibition at 10 μM) | − (“−” indicates less than 50% inhibition at 10 μM) | − (“−” indicates less than 50% inhibition at 10 μM) | − (“−” indicates less than 50% inhibition at 10 μM) | − (“−” indicates less than 50% inhibition at 10 μM) | − (“−” indicates less than 50% inhibition at 10 μM) | + (“+” indicates greater than 50% inhibition at 10 μM) | –
